Test results taken from paper PMC8744746 (International Journal of Molecular Sciences, 2021).
Where “and” joins values, the source holds several entries; their conditions need not be identical. Equal entries are not always repeated. Entries after “also recorded” stand apart in the source; their conditions may differ. Where two headings read alike, the source gives them in different places.

How the values were obtained:
in vitro = conditions: human
Experimental: Because replicating cells may be more vulnerable than confluent monolayers, we evaluated survival of both subconfluent (dividing) and confluent (contact-inhibited) HFF cultures after 72 h of exposure to increasing drug concentrations (Supplemental Figure S4). […] Using this information, we calculated the in vitro therapeutic index for these drugs, which is the ratio of the CC50 to the EC50.
For subconfluent monolayers, approximately 5 × 10^4 HFF cells were plated into each well of a 24-well dish and exposed to D10+ media alone or D10+ with DMSO or drug for 3 days. The plates were processed with the In Vitro Toxicology Assay Kit, MTT based (Sigma Aldrich, TOX1), and A570 was measured in a SpectraMax I3X plate reader. Exported data were analyzed using Microsoft Excel. For confluent monolayers, approximately 5 × 10^4 HFF cells were plated into each well of a 24-well dish and grown in D10+ media alone. Once the cells were confluent, they were gently rinsed with PBS, and D10+ with DMSO or drug was added to each well. The plates were processed as above.

[1] = system: Toxoplasma RH strain tachyzoites; test: microbe, parasite or virus in culture; conditions: 168 h, read-out: EC50, Toxoplasma RH Strain, plaque area relative to control after 7 days in HFF monolayers
Experimental: (§1) To assess this, we gauged the therapeutic index by measuring compound EC50 for Toxoplasma tachyzoites grown in vertebrate host cells versus the CC50 for uninfected human foreskin fibroblast (HFF) cells. […] After 1 week of parasite growth, we visualized lytic destruction of crystal violet-stained host cells to reveal macroscopic plaques in the monolayer (Figure 2B). Greyscale images of individual wells were analyzed with the open-source program ImageJ [18] using the “threshold” functionality to differentiate between cells (dark gray) and plaques (white). The program calculates plaque number, average size, and percent total area within the field. The EC50 value is determined by graphing the relationship between compound concentrations and percent total plaque area relative to control cultures. […] HFF cells were grown to confluency in 6-well dishes and infected with 300 tachyzoites/well. Individual wells were treated with varying concentrations of drug, and the plates were left undisturbed for 7 days at 37 °C in a humidified 5% CO2 incubator. […] Greyscale photographic images of the plates were analyzed in ImageJ (NIH, Bethesda, MD, USA) using the “threshold” functionality. Plaque number, average size and percent total area were calculated by the program. […]

RH-GFP T. gondii = conditions: GFP-expressing parasites per vacuole, tracked up to 36 h
Text: To live image replicating parasites, we used a GFP-expressing Toxoplasma line [29] for invasion assays and replication assays. […] Next, we assessed the effects of the drugs on replication. By adding drug to infected cells after initiating parasite invasion, this assay measures replication independent of any effects on invasion. This methodology may also reveal details induced by drug treatment that are not resolved by the plaque assay, such as changes in parasite shape or acute replication delays. We enumerated the number of GFP-expressing parasites in individual vacuoles at 12-hour intervals over one complete lytic cycle.
HFF cells were grown to confluency in 35 mm coverslip dishes (MatTek, Ashland MA, USA). RH-GFP T. gondii [29] were harvested by filtering freshly lysed parasites. Parasites were diluted 4-fold in D10+ media. After 30 min of invasion at 37 °C, the cell monolayer was washed with PBS to remove extracellular parasites. D10+ media alone, D10+ with DMSO, or drug in DMSO was added to the dishes. Actively growing parasites in fibroblasts were imaged every 12 h over a 48-hour period using a Zeiss Axiovert 200 M and an Axiovision camera to collect 10 random fields of view for each condition. Parasite replication states were manually quantified and tallied to enumerate singlets, doublets, quadruplets, and larger rosettes.

HFF cell microtubules = test: Tubulin immunofluorescence and SFEX quantification of vertebrate microtubules; type: cell-based, human; conditions: at or above the EC50 for oryzalin, clemastine, astemizole; versus vehicle control
Experimental: Vertebrate sensitivity is assessed using tubulin immunofluorescence to visualize microtubule networks after drug treatment of uninfected human HFF cells in culture (Figure 3A). To quantify microtubule polymer density between treatments, we used the SFEX program [19] to segment and enumerate filaments in a fixed-size region of interest. Treatment with the vertebrate microtubule-depolymerizing colchicine-site ligand combretastatin A4 [32] was used as a positive control to ensure that the SFEX parameters captured partial, as well as total, loss of cytoplasmic microtubules.
HFF cells were seeded subconfluently onto sterile 12-mm circular glass coverslips in 6-well dishes. Cells were grown to semiconfluency (3–4 days). Cultures were exposed to DMSO (vehicle control) and drugs of interest for 60 min at 37 °C. These samples were fixed and permeabilized with ice-cold methanol for 3–5 min and blocked in 10% BSA in Ca^2+, Mg^2+-free PBS at room temperature for 30 min or overnight at 4 °C. […] The open-source software Stress Fiber Extractor 1.0 [19] was used to quantify assembled tubulin (microtubules) present in HFF-cell immunofluorescence images within MATLAB R2015a, using the “Stress Fiber Network” analysis feature. […] Quantitative analysis of the segmented filaments was performed with the Stress Fiber Extractor, with export of data into Excel (Microsoft, Redmond, WA, USA). […]

[2] = system: Toxoplasma tachyzoite subpellicular microtubules; test: Subpellicular microtubule length in deoxycholate-extracted tachyzoites (ImageJ); type: cell-based, Toxoplasma gondii; conditions: drug-treated tachyzoites versus vehicle controls
Experimental: In parallel, we assessed the effect of these candidate tubulin-targeting agents on parasite microtubules, also via tubulin immunofluorescence. Because tachyzoite subpellicular microtubules are unusually resistant to detergent extraction due to the association of SPM1 and other stabilizing luminal proteins, these structures can be specifically isolated for analysis. Vehicle- and drug-treated parasites were incubated with deoxycholate, and the extracted subpellicular microtubule arrays were detected with tubulin immunofluorescence (Figure 4A). Images of parasite microtubules were measured using ImageJ.
To measure the length distribution of Toxoplasma tachyzoite subpellicular microtubules in control and treated parasites, we isolated subpellicular microtubule complexes by deoxycholate extraction of freshly lysed tachyzoites. Briefly, RH parasites were treated with DMSO or candidate drugs in culture for 2 days. Following lysis of host cells, extracellular parasites were centrifuged at 1000× g for 20 min at 4 °C and then resuspended in 1 mL of PBS. Parasites were settled onto poly-l-lysine (Sigma)-coated coverslips for 15 min at room temperature. Coverslips were incubated with 10 mg/mL deoxycholate (DOC) in phosphate-buffered saline (PBS) for 10 min to extract the subpellicular microtubule cytoskeleton. Samples were fixed in 3.7% formyl saline (Sigma) at room temperature for 10–15 min, followed by immunostaining for tubulin, as described above. Extracted subpellicular microtubules in immunofluorescence images were measured using ImageJ.

RH-GFP parasites = type: cell-based, Toxoplasma gondii; conditions: drugs at their EC50 concentrations, clemastine +/− pretreatment
Experimental: The red-green invasion assay using GFP-expressing tachyzoites was adapted from the original protocol. HFF cells were grown to confluency on coverslips in 6-well dishes. RH-GFP parasites were harvested from infected host cells by syringe passage through a 27-gauge needle. Tachyzoites were allowed to adhere to host cells for 20 min at 37 °C in a high-potassium “Endo” buffer. The buffer was replaced with warm invasion medium (DMEM + various drug conditions). Parasite invasion occurred under control or drug-treated conditions for 3 min (short invasion time) or 30 min (long invasion time) at 37 °C in a humidified 5% CO2 incubator. After invasion, samples were washed with PBS, fixed with formyl saline without subsequent permeabilization, stained with mouse anti-SAG1 antibody (Invitrogen, Waltham, MA, USA: D61S, 1:1000), and detected with a goat anti-mouse secondary antibody conjugated to Alexa Fluor 594 (Invitrogen A11005, 1:1000). Extracellular, invading, and intracellular parasites were scored from 10 random microscope fields. Invasion was calculated by dividing the number of intracellular parasites by the total number of parasites counted.

[3] = system: Toxoplasma RH strain tachyzoites; conditions: read-out: EC50, Toxoplasma RH Strain; plaque area relative to control after 7 days in HFF monolayers
Experimental: as §1

[4] = system: α-tubulin in T. gondii tachyzoites; test: Immunoblot quantification of α-tubulin protein in tachyzoites; type: cell-based, Toxoplasma gondii; conditions: clemastine-treated tachyzoites (8 μM in Figure 4D); DMSO control 0.022
Text: Parasite equivalents and known concentrations of porcine tubulin standards were resolved by SDS-PAGE for subsequent immunoblot analysis using a broadly cross-reacting α-tubulin monoclonal antibody that recognizes both vertebrate and Toxoplasma tubulin. Band intensity was quantified with ImageJ, and the porcine samples were used to create a standard curve to determine α-tubulin concentration in Toxoplasma samples normalized to parasite equivalents.
The samples were resolved on a 10% SDS-polyacrylamide gel (Bio-Rad) and blotted to nitrocellulose for immunoblot analysis. Blots were probed with a mouse anti-α-tubulin antibody (Sigma T9026; 1:5000) and detected with an IgG anti-mouse secondary antibody conjugated to HRP (Promega, Madison, WI, USA: W4021, 1:10,000). Samples were imaged using a Nikon D700 fitted with a 55 mm f/1.4 Nikkor auto-focus lens and intervening 12 mm Kenko auto-focus extension tube [46]. Exposure times were controlled with a Satechi TRC-B remote shutter control. Band intensity was quantified using ImageJ.

Toxoplasma = system: Toxoplasma; design: method as in PMID 28609444; conditions: cited from earlier work

Molecule	Effect on tachyzoite replication (RH-GFP T. gondii)	Effect on vertebrate (HFF) microtubules, in words (HFF cell microtubules)	Effect on Toxoplasma subpellicular microtubule length, in words [2]	Effect on tachyzoite invasion (RH-GFP parasites)	further results
COc1ccc(CCN2CCC(Nc3nc4ccccc4n3Cc3ccc(F)cc3)CC2)cc1 [Astemizole]	No delays in replication are detected at 36 hours; also recorded: did not detect overt slowing of replication	do not significantly differ from the vehicle control	smaller but significant decreases in filament length; also recorded: small but significant decrease in microtubule length	does not affect invasion	CC50 at 72 h (in vitro; HFF CC50 confluent): 18 µM; CC50 at 72 h (in vitro; HFF CC50 subconfluent): 8.83 µM; EC50 [1]: ~2 µM; EC50 [3]: 2.07 µM
CN1CCC[C@@H]1CCO[C@](C)(c1ccccc1)c1ccc(Cl)cc1 [Clemastine]	No delays in replication are detected at 36 hours; also recorded: did not detect overt slowing of replication			does not affect invasion	α-tubulin (pg)/tachyzoite [4]: 0.02 pg/tachyzoite and ~ 0.02 pg/tachyzoite
COc1ccc(/C=C\c2cc(OC)c(OC)c(OC)c2)cc1O [Combretastatin A4, combretastatin A4]		dose-dependent microtubule disassembly			
CCc1nc(N)nc(N)c1-c1ccc(Cl)cc1 [Pyrimethamine]			does not reduce microtubule length		Effect on Toxoplasma subpellicular microtubule length, in words ([2]; listed as pyrimethamine): not different to that of the vehicle controls
OCCOCCN1CCN(C(c2ccccc2)c2ccc(Cl)cc2)CC1 (stereo not shown) [hydroxyzine]					EC50 (Toxoplasma): 1 µM
Parabulin			significant reduction in microtubule length; also recorded: significant microtubule shortening relative to control samples		
